Reference: US20260092071A1, “COMPOUNDS AND COMPOSITIONS AS SMARCA2/4 DEGRADERS AND USES THEREOF” (REGENTS OF THE UNIVERSITY OF MICHIGAN, priority 2022, published 2026)

Legend:
[1] = molecular target: SMARCA4 (Homo sapiens, UniProt P51532); assay: HiBit assay in engineered HT1080 CRISPR knock-in cell, 6 hrs (B series), SMARCA4; format: cell-based; conditions: 6 hrs incubation; for DC50: read-out: SMARC A4 HT1080 HiBit DC50; for Dmax: HT-1080, HT1080 CRISPR knock-in cells, read-out: SMARC A4 HT1080 HiBit Dmax(%)
Method in brief: (§1)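 HT1080 CRISPR knock-in cells carrying the HiBiT tag were seeded onto compounds (final DMSO 0.1%) and incubated 6 hrs at 37° C, 5% CO2. Remaining tagged protein was detected by lytic HiBiT luminescence after adding LgBiT protein and substrate, with LgBiT-free wells serving as negative control.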

[2] = molecular target: SMARCA2 (Homo sapiens, UniProt P51531); assay: HiBit assay in engineered HT1080 CRISPR knock-in cell, 6 hrs (B series), SMARCA2; format: cell-based; conditions: 6 hrs incubation; for DC50: read-out: SMARC A2 HT1080 HiBit DC50; for Dmax: HT-1080, HT1080 CRISPR knock-in cells, read-out: SMARC A2 HT1080 HiBit Dmax (%)
Method in brief: as §1

Chain of SMARCA4 (P51532 whole entry): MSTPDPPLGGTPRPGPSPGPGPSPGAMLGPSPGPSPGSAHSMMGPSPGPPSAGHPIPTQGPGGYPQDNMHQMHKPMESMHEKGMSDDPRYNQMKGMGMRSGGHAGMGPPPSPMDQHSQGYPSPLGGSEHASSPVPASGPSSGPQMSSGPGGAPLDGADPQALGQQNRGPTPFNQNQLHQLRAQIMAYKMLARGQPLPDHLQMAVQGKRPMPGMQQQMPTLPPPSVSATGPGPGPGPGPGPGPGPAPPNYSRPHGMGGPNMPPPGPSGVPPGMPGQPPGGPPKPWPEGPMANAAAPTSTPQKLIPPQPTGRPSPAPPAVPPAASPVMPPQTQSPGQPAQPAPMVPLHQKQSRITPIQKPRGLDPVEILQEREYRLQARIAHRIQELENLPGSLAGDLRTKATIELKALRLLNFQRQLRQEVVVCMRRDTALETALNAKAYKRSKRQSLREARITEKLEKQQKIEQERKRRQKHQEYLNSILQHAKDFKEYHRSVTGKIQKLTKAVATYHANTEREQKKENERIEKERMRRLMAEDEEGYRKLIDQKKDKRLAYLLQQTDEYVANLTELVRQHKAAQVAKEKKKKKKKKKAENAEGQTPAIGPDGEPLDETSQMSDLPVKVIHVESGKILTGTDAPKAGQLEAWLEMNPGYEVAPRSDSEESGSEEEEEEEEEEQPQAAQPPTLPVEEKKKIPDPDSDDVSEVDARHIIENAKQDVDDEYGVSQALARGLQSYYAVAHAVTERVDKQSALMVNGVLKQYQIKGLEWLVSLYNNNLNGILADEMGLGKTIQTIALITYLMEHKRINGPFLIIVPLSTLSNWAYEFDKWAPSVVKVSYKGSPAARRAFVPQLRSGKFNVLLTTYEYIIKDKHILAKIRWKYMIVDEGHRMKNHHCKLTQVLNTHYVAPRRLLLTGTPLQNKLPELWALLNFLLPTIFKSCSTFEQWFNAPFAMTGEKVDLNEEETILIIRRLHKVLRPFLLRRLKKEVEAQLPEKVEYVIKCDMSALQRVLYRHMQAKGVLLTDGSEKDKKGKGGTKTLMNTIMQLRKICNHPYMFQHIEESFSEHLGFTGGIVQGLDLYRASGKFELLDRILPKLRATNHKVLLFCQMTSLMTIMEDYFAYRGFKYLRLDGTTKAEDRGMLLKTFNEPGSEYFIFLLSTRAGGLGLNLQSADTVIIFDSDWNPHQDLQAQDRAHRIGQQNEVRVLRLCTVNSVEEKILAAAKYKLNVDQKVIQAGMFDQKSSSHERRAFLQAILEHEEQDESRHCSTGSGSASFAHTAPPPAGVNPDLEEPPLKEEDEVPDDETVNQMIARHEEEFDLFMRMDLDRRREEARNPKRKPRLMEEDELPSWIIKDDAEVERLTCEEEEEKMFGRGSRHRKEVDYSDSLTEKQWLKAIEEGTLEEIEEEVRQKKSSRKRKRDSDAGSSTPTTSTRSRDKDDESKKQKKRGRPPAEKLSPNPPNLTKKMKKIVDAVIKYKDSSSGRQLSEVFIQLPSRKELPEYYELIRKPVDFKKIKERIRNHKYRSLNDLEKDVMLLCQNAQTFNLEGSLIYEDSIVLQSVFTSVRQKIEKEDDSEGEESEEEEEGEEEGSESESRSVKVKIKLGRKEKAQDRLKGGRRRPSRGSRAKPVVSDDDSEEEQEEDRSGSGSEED
Chain of SMARCA2 (P51531 whole entry): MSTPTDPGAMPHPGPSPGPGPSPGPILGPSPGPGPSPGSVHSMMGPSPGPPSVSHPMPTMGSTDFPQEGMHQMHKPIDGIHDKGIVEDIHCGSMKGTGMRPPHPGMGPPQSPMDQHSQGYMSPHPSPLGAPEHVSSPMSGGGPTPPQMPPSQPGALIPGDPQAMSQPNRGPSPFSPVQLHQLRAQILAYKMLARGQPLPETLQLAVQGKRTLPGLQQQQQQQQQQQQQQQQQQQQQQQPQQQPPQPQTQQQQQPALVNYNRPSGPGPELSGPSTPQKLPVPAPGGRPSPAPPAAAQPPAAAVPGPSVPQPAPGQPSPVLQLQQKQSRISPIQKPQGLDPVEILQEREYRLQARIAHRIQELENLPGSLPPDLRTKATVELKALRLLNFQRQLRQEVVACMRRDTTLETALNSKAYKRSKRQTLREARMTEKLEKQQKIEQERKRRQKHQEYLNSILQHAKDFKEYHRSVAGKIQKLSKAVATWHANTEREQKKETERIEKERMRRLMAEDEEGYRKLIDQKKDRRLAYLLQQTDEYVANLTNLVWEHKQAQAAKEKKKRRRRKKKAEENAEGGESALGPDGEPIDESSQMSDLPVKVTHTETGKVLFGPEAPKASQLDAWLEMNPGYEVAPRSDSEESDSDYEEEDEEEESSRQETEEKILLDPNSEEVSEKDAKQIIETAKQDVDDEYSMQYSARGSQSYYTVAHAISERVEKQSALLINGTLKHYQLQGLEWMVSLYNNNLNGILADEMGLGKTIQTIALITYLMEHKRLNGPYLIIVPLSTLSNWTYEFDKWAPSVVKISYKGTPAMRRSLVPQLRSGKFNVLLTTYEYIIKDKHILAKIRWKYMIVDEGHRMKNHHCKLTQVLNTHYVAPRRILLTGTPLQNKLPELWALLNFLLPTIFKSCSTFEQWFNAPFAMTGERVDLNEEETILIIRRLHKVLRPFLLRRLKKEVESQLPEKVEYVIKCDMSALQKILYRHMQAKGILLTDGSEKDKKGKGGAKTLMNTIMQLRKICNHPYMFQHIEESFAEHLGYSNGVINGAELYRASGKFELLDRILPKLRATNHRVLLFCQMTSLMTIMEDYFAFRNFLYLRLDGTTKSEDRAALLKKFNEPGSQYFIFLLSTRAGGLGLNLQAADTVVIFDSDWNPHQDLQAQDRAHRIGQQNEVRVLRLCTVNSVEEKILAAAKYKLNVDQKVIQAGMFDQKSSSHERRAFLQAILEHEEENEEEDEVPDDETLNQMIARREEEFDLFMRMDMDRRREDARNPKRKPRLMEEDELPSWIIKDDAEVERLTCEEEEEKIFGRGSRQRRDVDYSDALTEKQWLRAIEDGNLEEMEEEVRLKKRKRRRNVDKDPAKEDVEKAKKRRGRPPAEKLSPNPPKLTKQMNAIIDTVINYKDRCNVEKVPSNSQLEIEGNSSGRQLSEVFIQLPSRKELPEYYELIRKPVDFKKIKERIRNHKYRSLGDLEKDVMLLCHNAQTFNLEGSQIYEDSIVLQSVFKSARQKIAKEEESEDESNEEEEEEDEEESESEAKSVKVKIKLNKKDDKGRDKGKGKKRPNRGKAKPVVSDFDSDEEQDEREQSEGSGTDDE

Compound | DC50 ([1]; HT1080 CRISPR knock-in cells) [µM] | Dmax [1] [%] | DC50 ([2]; HT1080 CRISPR knock-in cells) [µM] | Dmax [2] [%] | SMARC A4 HT1080 HiBit Dmax(%) ([1]; HT1080 CRISPR knock-in cells) | SMARC A2 HT1080 HiBit Dmax (%) ([2]; HT1080 CRISPR knock-in cells)
Cc1ncsc1-c1ccc([C@H](C)NC(=O)[C@@H]2C[C@@H](O)CN2C(=O)[C@@H](c2cc(OCC3(CN4CCC(c5ccc6c(c5)-n5c(nc(=O)c7c(Cl)cccc75)C6(C)C)CC4)CC3)no2)C(C)C)cc1 [Compound B91, (2S,4R)-1-((R)-2-(3-((1-((4-(4-chloro-7,7-dimethyl-5-oxo-5,7-dihydroindolo[1,2-a]quinazolin-10-yl)piperidin-1-yl)methyl)cyclopropyl)methoxy)isoxazol-5-yl)-3-methylbutanoyl)-4-hydroxy-N-((S)-1-(4-(4-methylthiazol-5-yl)phenyl)ethyl)pyrrolidine-2-carboxamide] | < 0.1 | > 90 | < 0.1 | > 90 | – | –
Cc1ncsc1-c1ccc([C@H](C)NC(=O)[C@@H]2C[C@@H](O)CN2C(=O)[C@@H](NC(=O)CCn2cc(-c3ccc4c(c3)-n3c(nc(=O)c5c(Cl)cccc53)C4(C)C)cn2)C(C)(C)C)cc1 [Compound B92, (2S,4R)-1-((S)-2-(3-(4-(4-chloro-7,7-dimethyl-5-oxo-5,7-dihydroindolo[1,2-a]quinazolin-10-yl)-1H-pyrazol-1-yl)propanamido)-3,3-dimethylbutanoyl)-4-hydroxy-N-((S)-1-(4-(4-methylthiazol-5-yl)phenyl)ethyl)pyrrolidine-2-carboxamide] | > 1 | < 50 | > 1 | < 50 | – | –
Cc1ncsc1-c1ccc([C@H](C)NC(=O)[C@@H]2C[C@@H](O)CN2C(=O)[C@@H](NC(=O)CCCn2cc(-c3ccc4c(c3)C(C)(C)c3nc(=O)c5c(Cl)cccc5n3-4)cn2)C(C)(C)C)cc1 [Compound B93, (2S,4R)-1-((S)-2-(4-(4-(4-chloro-7,7-dimethyl-5-oxo-5,7-dihydroindolo[1,2-a]quinazolin-9-yl)-1H-pyrazol-1-yl)butanamido)-3,3-dimethylbutanoyl)-4-hydroxy-N—((S)-1-(4-(4-methylthiazol-5-yl)phenyl)ethyl)pyrrolidine-2-carboxamide] | 0.1 to 0.5 | < 50 | 0.1 to 0.5 | 50 to 69 | – | –
Cc1ncsc1-c1ccc([C@H](C)NC(=O)[C@@H]2C[C@@H](O)CN2C(=O)[C@@H](c2cc(OC3CCC(Cn4cc(-c5ccc6c(c5)-n5c(nc(=O)c7c(Cl)cccc75)C6(C)C)cn4)CC3)no2)C(C)C)cc1 (stereo partly drawn) [Compound B95, (2S,4R)-1-((R)-2-(3-((4-((4-(4-chloro-7,7-dimethyl-5-oxo-5,7-dihydroindolo[1,2-a]quinazolin-10-yl)-1H-pyrazol-1-yl)methyl)cyclohexyl)oxy)isoxazol-5-yl)-3-methylbutanoyl)-4-hydroxy-N-((S)-1-(4-(4-methylthiazol-5-yl)phenyl)ethyl)pyrrolidine-2-carboxamide] | > 1 | < 50 | 0.1 to 0.5 | 50 to 69 | – | –
Cc1ncsc1-c1ccc([C@H](C)NC(=O)[C@@H]2C[C@@H](O)CN2C(=O)[C@@H](c2cc(OCCCCn3cc(-c4ccc5c(c4)-n4c(nc(=O)c6c(Cl)cccc64)C5(C)C)cn3)no2)C(C)C)cc1 [Compound B97, (2S,4R)-1-((R)-2-(3-(4-(4-(4-chloro-7,7-dimethyl-5-oxo-5,7-dihydroindolo[1,2-a]quinazolin-10-yl)-1H-pyrazol-1-yl)butoxy)isoxazol-5-yl)-3-methylbutanoyl)-4-hydroxy-N-((S)-1-(4-(4-methylthiazol-5-yl)phenyl)ethyl)pyrrolidine-2-carboxamide] | 0.1 to 0.5 | < 50 | 0.1 to 0.5 | 50 to 69 | – | –
Cc1ncsc1-c1ccc([C@H](C)NC(=O)[C@@H]2C[C@@H](O)CN2C(=O)C(c2cc(OCCCCn3cc(-c4ccc5c(c4)C(C)(C)c4nc(=O)c6c(Cl)cccc6n4-5)cn3)no2)C(C)C)cc1 (stereo partly drawn) [Compound B99, (2S,4R)-1-(2-(3-(4-(4-(4-chloro-7,7-dimethyl-5-oxo-5,7-dihydroindolo[1,2-a]quinazolin-9-yl)-1H-pyrazol-1-yl)butoxy)isoxazol-5-yl)-3-methylbutanoyl)-4-hydroxy-N-((S)-1-(4-(4-methylthiazol-5-yl)phenyl)ethyl)pyrrolidine-2-carboxamide] | > 1 | < 50 | < 0.1 | 50 to 69 | – | –
Cc1cc(C(C(=O)N2C[C@H](O)C[C@H]2C(=O)N[C@@H](C)c2ccc(-c3scnc3C#CCOCCCN3CCC(c4ccc5c(c4)-n4c(nc(=O)c6c(Cl)cccc64)C5(C)C)CC3)cc2)C(C)C)on1 (stereo partly drawn) [Compound B103, (2S,4R)-N-((S)-1-(4-(4-(3-(3-(4-(4-chloro-7,7-dimethyl-5-oxo-5,7-dihydroindolo[1,2-a]quinazolin-10-yl)piperidin-1-yl)propoxy)prop-1-yn-1-yl)thiazol-5-yl)phenyl)ethyl)-4-hydroxy-1-(3-methyl-2-(3-methylisoxazol-5-yl)butanoyl)pyrrolidine-2-carboxamide] | < 0.1 | > 90 | < 0.1 | > 90 | – | –
Cc1ncsc1-c1ccc([C@H](CN2CCOCC2)NC(=O)[C@@H]2C[C@@H](O)CN2C(=O)[C@@H](n2cc([C@H]3CC[C@H](CN4CCC(c5ccc6c(c5)-n5c(nc(=O)c7c(Br)cccc75)C6(C)C)CC4)CC3)nn2)C(C)(C)C)cc1 [Compound B105, (2S,4R)-1-((S)-2-(4-((1r,4S)-4-((4-(4-bromo-7,7-dimethyl-5-oxo-5,7-dihydroindolo[1,2-a]quinazolin-10-yl)piperidin-1-yl)methyl)cyclohexyl)-1H-1,2,3-triazol-1-yl)-3,3-dimethylbutanoyl)-4-hydroxy-N—((R)-1-(4-(4-methylthiazol-5-yl)phenyl)-2-morpholinoethyl)pyrrolidine-2-carboxamide] | 0.1 to 0.5 | 70 to 90 | < 0.1 | > 90 | – | –

Continued, values first:

DC50 ([1]; HT1080 CRISPR knock-in cells) [µM] | Dmax [1] [%] | DC50 ([2]; HT1080 CRISPR knock-in cells) [µM] | Dmax [2] [%] | SMARC A4 HT1080 HiBit Dmax(%) ([1]; HT1080 CRISPR knock-in cells) | SMARC A2 HT1080 HiBit Dmax (%) ([2]; HT1080 CRISPR knock-in cells) | Compound
0.1 to 0.5 | – | < 0.1 | – | D (D (<50% degradation)) | B (B (70-90% degradation)) | Cc1ncsc1-c1ccc([C@H](C)NC(=O)[C@@H]2C[C@@H](O)CN2C(=O)[C@@H](c2cc(OC3CCC(Cn4cc(-c5ccc6c(c5)-n5c(nc(=O)c7c(Cl)cccc75)C6(C)C)cn4)CC3)no2)C(C)C)cc1 (stereo partly drawn) [Compound B96, (2S,4R)-1-((R)-2-(3-((4-((4-(4-chloro-7,7-dimethyl-5-oxo-5,7-dihydroindolo[1,2-a]quinazolin-10-yl)-1H-pyrazol-1-yl)methyl)cyclohexyl)oxy)isoxazol-5-yl)-3-methylbutanoyl)-4-hydroxy-N-((S)-1-(4-(4-methylthiazol-5-yl)phenyl)ethyl)pyrrolidine-2-carboxamide]
< 0.1 | < 50 | < 0.1 | 70 to 90 | – | – | Cc1ncsc1-c1ccc([C@H](C)NC(=O)[C@@H]2C[C@@H](O)CN2C(=O)[C@@H](c2cc(OCC3CCC(N4CCC(c5cccc6c5C(C)(C)c5nc(=O)c7c(Cl)cccc7n5-6)CC4)CC3)no2)C(C)C)cc1 (stereo partly drawn) [Compound B100, (2S,4R)-1-((R)-2-(3-((4-(4-(4-chloro-7,7-dimethyl-5-oxo-5,7-dihydroindolo[1,2-a]quinazolin-8-yl)piperidin-1-yl)cyclohexyl)methoxy)isoxazol-5-yl)-3-methylbutanoyl)-4-hydroxy-N-((S)-1-(4-(4-methylthiazol-5-yl)phenyl)ethyl)pyrrolidine-2-carboxamide]
> 1 | < 50 | > 1 | < 50 | – | – | Cc1ncsc1-c1ccc([C@H](C)NC(=O)[C@@H]2C[C@@H](O)CN2C(=O)[C@@H](NC(=O)CCn2cc(-c3ccc4c(c3)C(C)(C)c3nc(=O)c5c(Cl)cccc5n3-4)cn2)C(C)(C)C)cc1 [Compound B101, (2S,4R)-1-((S)-2-(3-(4-(4-chloro-7,7-dimethyl-5-oxo-5,7-dihydroindolo[1,2-a]quinazolin-9-yl)-1H-pyrazol-1-yl)propanamido)-3,3-dimethylbutanoyl)-4-hydroxy-N-((S)-1-(4-(4-methylthiazol-5-yl)phenyl)ethyl)pyrrolidine-2-carboxamide]
< 0.1 | 70 to 90 | < 0.1 | > 90 | – | – | C#Cc1ccc([C@H](CN2CCOCC2)NC(=O)[C@@H]2C[C@@H](O)CN2C(=O)[C@@H](n2cc([C@H]3CC[C@H](CN4CCC(c5ccc6c(c5)-n5c(nc(=O)c7c(Cl)cccc75)C6(C)C)CC4)CC3)nn2)C(C)(C)C)cc1 [Compound B102, (2S,4R)-1-((S)-2-(4-((1r,4S)-4-((4-(4-chloro-7,7-dimethyl-5-oxo-5,7-dihydroindolo[1,2-a]quinazolin-10-yl)piperidin-1-yl)methyl)cyclohexyl)-1H-1,2,3-triazol-1-yl)-3,3-dimethylbutanoyl)-N—((R)-1-(4-ethynylphenyl)-2-morpholinoethyl)-4-hydroxypyrrolidine-2-carboxamide]
0.1 to 0.5 | 70 to 90 | < 0.1 | > 90 | – | – | Cc1cc(C(C(=O)N2C[C@H](O)C[C@H]2C(=O)N[C@@H](C)c2ccc(-c3scnc3C#CCOCCOCCN3CCC(c4ccc5c(c4)-n4c(nc(=O)c6c(Cl)cccc64)C5(C)C)CC3)cc2)C(C)C)on1 (stereo partly drawn) [Compound B104, (2S,4R)—N—((S)-1-(4-(4-(3-(2-(2-(4-(4-chloro-7,7-dimethyl-5-oxo-5,7-dihydroindolo[1,2-a]quinazolin-10-yl)piperidin-1-yl)ethoxy)ethoxy)prop-1-yn-1-yl)thiazol-5-yl)phenyl)ethyl)-4-hydroxy-1-(3-methyl-2-(3-methylisoxazol-5-yl)butanoyl)pyrrolidine-2-carboxamide]
